# Reference: PubChem BioAssay (NCI)
# Several values for one entry are separate records, joined by “and”; a condition that tells them apart may be missing. Equal values may be shown once.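 These data come from cells grown in 96-well plates and exposed to compound for 48 hours at five concentrations. The concentration for 50% growth inhibition is given as GI50. TGI marks complete inhibition of growth.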
# Assays:
# Experiment in all cases: NCI-60 cell line screen, 48 h
# 786-0 renal = test system: 786-0 renal
# A498 renal = test system: A498 renal
# A549 NSCLC = test system: A549 NSCLC
# ACHN renal = test system: ACHN renal
# BT-549 breast = test system: BT-549 breast
# CAKI-1 renal = test system: CAKI-1 renal
# CCRF-CEM leukemia = test system: CCRF-CEM leukemia
# COLO 205 colon = test system: COLO 205 colon
# DU-145 prostate = test system: DU-145 prostate
# EKVX NSCLC = test system: EKVX NSCLC
# HCC-2998 colon = test system: HCC-2998 colon
# HCT-116 colon = test system: HCT-116 colon
# HCT-15 colon = test system: HCT-15 colon
# HL-60(TB) leukemia = test system: HL-60(TB) leukemia
# HOP-62 NSCLC = test system: HOP-62 NSCLC
# HOP-92 NSCLC = test system: HOP-92 NSCLC
# HS 578T breast = test system: HS 578T breast
# HT29 colon = test system: HT29 colon
# IGROV1 ovarian = test system: IGROV1 ovarian
# K-562 leukemia = test system: K-562 leukemia
# KM12 colon = test system: KM12 colon
# LOX IMVI melanoma = test system: LOX IMVI melanoma
# M14 melanoma = test system: M14 melanoma
# MALME-3M melanoma = test system: MALME-3M melanoma
# MCF7 breast = test system: MCF7 breast
# MDA-MB-231 breast = test system: MDA-MB-231 breast
# MDA-MB-435 = test system: MDA-MB-435
# MOLT-4 leukemia = test system: MOLT-4 leukemia
# NCI-H226 lung = test system: NCI-H226 lung
# NCI-H23 lung = test system: NCI-H23 lung
# NCI-H460 lung = test system: NCI-H460 lung
# NCI-H522 lung = test system: NCI-H522 lung
# NCI/ADR-RES ovarian = test system: NCI/ADR-RES ovarian
# OVCAR-3 ovarian = test system: OVCAR-3 ovarian
# OVCAR-4 ovarian = test system: OVCAR-4 ovarian
# OVCAR-5 ovarian = test system: OVCAR-5 ovarian
# OVCAR-8 ovarian = test system: OVCAR-8 ovarian
# PC-3 prostate = test system: PC-3 prostate
# RPMI-8226 leukemia = test system: RPMI-8226 leukemia
# RXF 393 renal = test system: RXF 393 renal
# SF-268 CNS = test system: SF-268 CNS
# SF-295 CNS = test system: SF-295 CNS
# SF-539 CNS = test system: SF-539 CNS
# SK-MEL-2 melanoma = test system: SK-MEL-2 melanoma
# SK-MEL-28 melanoma = test system: SK-MEL-28 melanoma
# SK-MEL-5 melanoma = test system: SK-MEL-5 melanoma
# SK-OV-3 ovarian = test system: SK-OV-3 ovarian
# SN12C renal = test system: SN12C renal
# SNB-19 CNS = test system: SNB-19 CNS
# SNB-75 CNS = test system: SNB-75 CNS
# SR leukemia = test system: SR leukemia
# SW-620 colon = test system: SW-620 colon
# T-47D breast = test system: T-47D breast
# TK-10 renal = test system: TK-10 renal
# U251 CNS = test system: U251 CNS
# UACC-257 melanoma = test system: UACC-257 melanoma
# UACC-62 melanoma = test system: UACC-62 melanoma
# UO-31 renal = test system: UO-31 renal
smiles,measurement,setting,value
Cc1cc([N+](=O)[O-])c2ccccc2[n+]1[O-],GI50,786-0 renal,158 nM and 258 nM
same,TGI,786-0 renal,483 nM and 750 nM
same,GI50,A498 renal,185 nM and 144 nM
same,TGI,A498 renal,464 nM and 416 nM
same,GI50,A549 NSCLC,245 nM and 204 nM
same,TGI,A549 NSCLC,807 nM and 905 nM
same,GI50,ACHN renal,75.8 nM and 61.4 nM
same,TGI,ACHN renal,394 nM and 721 nM
same,GI50,BT-549 breast,216 nM and 388 nM
same,TGI,BT-549 breast,879 nM and 1630 nM
same,GI50,CAKI-1 renal,541 nM and 627 nM
same,TGI,CAKI-1 renal,3920 nM and 2350 nM
same,GI50,CCRF-CEM leukemia,2240 nM and 650 nM
same,TGI,CCRF-CEM leukemia,> 47800 nM and 7180 nM
same,GI50,COLO 205 colon,113 nM and 117 nM
same,TGI,COLO 205 colon,338 nM and 319 nM
same,GI50,DU-145 prostate,73 nM and 81.5 nM
same,TGI,DU-145 prostate,325 nM and 564 nM
same,GI50,EKVX NSCLC,2770 nM
same,TGI,EKVX NSCLC,12000 nM
same,GI50,HCC-2998 colon,128 nM and 221 nM
same,TGI,HCC-2998 colon,375 nM and 664 nM
same,GI50,HCT-116 colon,47.2 nM and 40.7 nM
same,TGI,HCT-116 colon,336 nM and 364 nM
same,GI50,HCT-15 colon,185 nM and 213 nM
same,TGI,HCT-15 colon,797 nM and 1030 nM
same,GI50,HL-60(TB) leukemia,2110 nM and 1650 nM
same,TGI,HL-60(TB) leukemia,6480 nM and 5510 nM
same,GI50,HOP-62 NSCLC,188 nM and 250 nM
same,TGI,HOP-62 NSCLC,835 nM and 1130 nM
same,GI50,HOP-92 NSCLC,308 nM and 153 nM
same,TGI,HOP-92 NSCLC,1730 nM and 597 nM
same,GI50,HS 578T breast,1180 nM and 989 nM
same,TGI,HS 578T breast,5740 nM and 4800 nM
same,GI50,HT29 colon,66 nM and 94.8 nM
same,TGI,HT29 colon,328 nM and 393 nM
same,GI50,IGROV1 ovarian,2580 nM and 3260 nM
same,TGI,IGROV1 ovarian,11900 nM and 10300 nM
same,GI50,K-562 leukemia,156 nM and 99.1 nM
same,TGI,K-562 leukemia,4280 nM and 3040 nM
same,GI50,KM12 colon,173 nM and 203 nM
same,TGI,KM12 colon,829 nM and 1050 nM
same,GI50,LOX IMVI melanoma,1160 nM and 385 nM
same,TGI,LOX IMVI melanoma,3480 nM and 1870 nM
same,GI50,M14 melanoma,239 nM and 259 nM
same,TGI,M14 melanoma,1080 nM and 1110 nM
same,GI50,MALME-3M melanoma,1390 nM and 2170 nM
same,TGI,MALME-3M melanoma,3070 nM and 4340 nM
same,GI50,MCF7 breast,48.9 nM and 34.2 nM
same,TGI,MCF7 breast,461 nM and 450 nM
same,GI50,MDA-MB-231 breast,218 nM and 202 nM
same,TGI,MDA-MB-231 breast,755 nM and 720 nM
same,GI50,MDA-MB-435,336 nM and 286 nM
same,TGI,MDA-MB-435,1580 nM and 1200 nM
same,GI50,MOLT-4 leukemia,869 nM and 1190 nM
same,TGI,MOLT-4 leukemia,7800 nM and 5950 nM
same,GI50,NCI-H226 lung,571 nM and 927 nM
same,TGI,NCI-H226 lung,3270 nM and 4620 nM
same,GI50,NCI-H23 lung,504 nM and 590 nM
same,TGI,NCI-H23 lung,2510 nM and 3750 nM
same,GI50,NCI-H460 lung,30.7 nM and 28.2 nM
same,TGI,NCI-H460 lung,129 nM and 109 nM
same,GI50,NCI-H522 lung,739 nM and 303 nM
same,TGI,NCI-H522 lung,2420 nM and 959 nM
same,GI50,NCI/ADR-RES ovarian,547 nM and 1420 nM
same,TGI,NCI/ADR-RES ovarian,3450 nM and 7680 nM
same,GI50,OVCAR-3 ovarian,392 nM and 319 nM
same,TGI,OVCAR-3 ovarian,1710 nM and 1250 nM
same,GI50,OVCAR-4 ovarian,2720 nM and 2610 nM
same,TGI,OVCAR-4 ovarian,10100 nM and 9130 nM
same,GI50,OVCAR-5 ovarian,2020 nM and 2260 nM
same,TGI,OVCAR-5 ovarian,7210 nM and 7120 nM
same,GI50,OVCAR-8 ovarian,683 nM and 688 nM
same,TGI,OVCAR-8 ovarian,3880 nM and 4860 nM
same,GI50,PC-3 prostate,165 nM and 149 nM
same,TGI,PC-3 prostate,1010 nM and 663 nM
same,GI50,RPMI-8226 leukemia,60.2 nM and 30.8 nM
same,TGI,RPMI-8226 leukemia,359 nM and 94.8 nM
same,GI50,RXF 393 renal,181 nM and 170 nM
same,TGI,RXF 393 renal,455 nM and 512 nM
same,GI50,SF-268 CNS,396 nM and 405 nM
same,TGI,SF-268 CNS,5840 nM and 5820 nM
same,GI50,SF-295 CNS,206 nM and 236 nM
same,TGI,SF-295 CNS,760 nM and 2000 nM
same,GI50,SF-539 CNS,303 nM and 214 nM
same,TGI,SF-539 CNS,1200 nM and 867 nM
same,GI50,SK-MEL-2 melanoma,209 nM and 212 nM
same,TGI,SK-MEL-2 melanoma,471 nM and 404 nM
same,GI50,SK-MEL-28 melanoma,1610 nM
same,TGI,SK-MEL-28 melanoma,3900 nM and 4540 nM
same,GI50,SK-MEL-5 melanoma,171 nM and 157 nM
same,TGI,SK-MEL-5 melanoma,334 nM and 355 nM
same,GI50,SK-OV-3 ovarian,1940 nM and 3330 nM
same,TGI,SK-OV-3 ovarian,6070 nM and 11600 nM
same,GI50,SN12C renal,278 nM and 270 nM
same,TGI,SN12C renal,1800 nM and 3090 nM
same,GI50,SNB-19 CNS,448 nM and 848 nM
same,TGI,SNB-19 CNS,4060 nM and 8290 nM
same,GI50,SNB-75 CNS,421 nM and 165 nM
same,TGI,SNB-75 CNS,2090 nM and 722 nM
same,GI50,SR leukemia,27.9 nM and 26.4 nM
same,GI50,SW-620 colon,72.8 nM and 54.3 nM
same,TGI,SW-620 colon,766 nM and 523 nM
same,GI50,T-47D breast,385 nM and 534 nM
same,TGI,T-47D breast,3230 nM and 4890 nM
same,GI50,TK-10 renal,187 nM and 210 nM
same,TGI,TK-10 renal,541 nM and 623 nM
same,GI50,U251 CNS,402 nM and 347 nM
same,TGI,U251 CNS,2930 nM and 2840 nM
same,GI50,UACC-257 melanoma,1710 nM and 1490 nM
same,TGI,UACC-257 melanoma,4450 nM and 4700 nM
same,GI50,UACC-62 melanoma,252 nM and 254 nM
same,TGI,UACC-62 melanoma,890 nM and 833 nM
same,GI50,UO-31 renal,215 nM and 220 nM
same,TGI,UO-31 renal,681 nM and 903 nM
